In ChEMBL document CHEMBL3124891, “Tetrahydroquinoline derivatives as potent and selective factor XIa inhibitors” (J Med Chem, 2014) one finds Ratio Ki, Ki and inhibition data, which are given here for five molecules.

For test [1], the species on record is Homo sapiens. Description: Selectivity ratio of Ki for human factor 10a to Ki for human factor 11a.
For test [2], the species on record is Homo sapiens. The test can be described thus: Selectivity ratio of Ki for human factor 7a to Ki for human factor 11a.
Test [3] deals with Coagulation factor X (Homo sapiens, UniProt P00742). Description: Binding affinity to human factor 10a assessed as release of p-nitroaniline after 10 to 120 mins by spectrophotometric analysis.
Test [4] concerns the target T1, Coagulation factor VII (Homo sapiens, UniProt P08709).
T1 sequence (P08709 whole entry): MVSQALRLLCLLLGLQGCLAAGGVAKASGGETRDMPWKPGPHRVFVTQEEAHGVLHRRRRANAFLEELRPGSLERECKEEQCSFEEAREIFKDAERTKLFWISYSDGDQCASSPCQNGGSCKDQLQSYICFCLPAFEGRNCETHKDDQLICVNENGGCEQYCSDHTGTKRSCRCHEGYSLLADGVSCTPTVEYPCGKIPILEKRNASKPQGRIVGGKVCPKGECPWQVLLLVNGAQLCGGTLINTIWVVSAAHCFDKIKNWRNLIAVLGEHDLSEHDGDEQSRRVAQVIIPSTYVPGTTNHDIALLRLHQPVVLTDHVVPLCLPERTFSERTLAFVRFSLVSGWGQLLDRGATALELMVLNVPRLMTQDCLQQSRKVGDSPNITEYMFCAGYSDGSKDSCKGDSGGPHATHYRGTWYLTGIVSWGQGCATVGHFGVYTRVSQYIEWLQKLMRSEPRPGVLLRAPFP
The test can be described thus: Binding affinity to human factor 7a assessed as release of p-nitroaniline after 10 to 120 mins by spectrophotometric analysis.

Test [5] addresses T2, Coagulation factor XI (Homo sapiens, UniProt P03951). The test can be described thus: Binding affinity to human factor 11a assessed as release of p-nitroaniline after 10 to 120 mins by spectrophotometric analysis.
Test [6] has as its system Oryctolagus cuniculus. The test can be described thus: Antithrombotic activity in rabbit arteriovenous-shunt thrombosis model assessed as inhibition of clot formation compound administered as single bolus dose followed by five continuous infusion dose. Format: functional.
Test [7] concerns the target T2, Coagulation factor XI. Description: Mixed-type inhibition of human factor 11a.
The target in test [8] is T2, Coagulation factor XI. The test can be described thus: Competitive inhibition of human factor 11a assessed as release of p-nitroaniline after 10 to 120 mins by Michaelis-Menten equation analysis.

Active and inactive are the calls of the source. The calls are words filed in the database; no cut-off is given here.

T2 sequence (P03951 19-387 limits assumed): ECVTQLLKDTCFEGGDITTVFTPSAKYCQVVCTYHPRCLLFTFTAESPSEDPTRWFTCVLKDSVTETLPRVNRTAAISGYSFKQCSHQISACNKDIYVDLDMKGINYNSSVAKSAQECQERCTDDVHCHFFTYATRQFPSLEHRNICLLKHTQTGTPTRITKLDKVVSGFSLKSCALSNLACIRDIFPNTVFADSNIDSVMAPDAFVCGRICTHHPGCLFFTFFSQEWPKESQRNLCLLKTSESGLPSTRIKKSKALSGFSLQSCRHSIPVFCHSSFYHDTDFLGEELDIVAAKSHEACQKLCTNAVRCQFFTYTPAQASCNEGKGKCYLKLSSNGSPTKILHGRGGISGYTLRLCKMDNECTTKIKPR
T2 sequence (P03951 388-625 limits assumed): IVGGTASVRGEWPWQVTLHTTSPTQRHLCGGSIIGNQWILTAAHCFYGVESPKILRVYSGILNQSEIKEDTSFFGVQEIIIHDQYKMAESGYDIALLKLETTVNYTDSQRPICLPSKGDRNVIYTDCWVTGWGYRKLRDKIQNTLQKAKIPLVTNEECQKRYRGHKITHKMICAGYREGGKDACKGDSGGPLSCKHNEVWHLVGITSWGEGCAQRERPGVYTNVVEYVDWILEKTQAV
Chain of Coagulation factor X (P00742 41-179 limits assumed): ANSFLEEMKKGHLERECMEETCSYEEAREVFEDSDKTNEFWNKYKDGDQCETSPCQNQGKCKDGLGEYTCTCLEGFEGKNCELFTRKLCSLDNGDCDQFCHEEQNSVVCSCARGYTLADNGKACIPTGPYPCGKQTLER
Chain of Coagulation factor X (P00742 235-488 limits assumed): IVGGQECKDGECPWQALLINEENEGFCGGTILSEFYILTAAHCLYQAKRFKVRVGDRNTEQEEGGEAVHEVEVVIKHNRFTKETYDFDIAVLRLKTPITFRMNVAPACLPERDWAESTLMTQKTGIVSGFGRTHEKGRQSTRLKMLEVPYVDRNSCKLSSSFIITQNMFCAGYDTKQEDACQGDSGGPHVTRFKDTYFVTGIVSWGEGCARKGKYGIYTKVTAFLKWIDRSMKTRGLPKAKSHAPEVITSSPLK

For `CC(C)CNC(=O)c1ccc(-c2ccccc2[C@@H]2C[C@H](c3ccccc3)c3cc(C(=N)N)ccc3N2)c(C(=O)O)c1` (racemic), the Ratio Ki in test [1] was 40; in test [2] it was 4. Further, the results for the Ki in test [3], in test [4] and in test [5] were 1100 nM, 95 nM and 25 nM, respectively.
For `N=C(N)c1ccc2c(c1)[C@@H](c1ccccc1)C[C@@H](c1ccccc1-c1ccc(C(=O)O)cc1C(=O)O)N2` (racemic), the Ratio Ki in test [1] turned out to be 100; in test [2], 30. The inhibitory constant (Ki) in test [3] was 970 nM; in test [4] it was 290 nM; in test [5] it was 8.5 nM.
For the molecule `N=C(N)c1ccc2c(c1)[C@@H](c1ccccc1)C[C@@H](c1cccc(-c3ccc(C(=O)O)cc3C(=O)O)c1)N2` (racemic), the Ratio Ki in test [1] amounted to 30; in test [2] it was 20. The inhibitory constant (Ki) amounted to 130 nM in test [3], 89 nM in test [4] and 3.9 nM in test [5].
As to `CC1(c2ccccc2)CC(c2cccc(-c3ccc(C(N)=O)cc3C(=O)O)c2)Nc2ccc(C(=N)N)cc21` (single isomer, unassigned; (+)), the Ratio Ki was greater than 1000 in test [1] and 200 in test [2].
Take `CC(C)CC(=O)Nc1cc(-c2ccc(C(N)=O)cc2C(=O)O)cc(C2CC(C)(c3ccccc3)c3cc(C(=N)N)ccc3N2)c1` (single isomer, unassigned; enantiomer 2): the inhibition result in test [6] was “Dose-dependent effect”. Moreover, the inhibition entry in test [7] and in test [8] was “Active” throughout.

For orientation: Ki means the dissociation constant of the complex between target and ligand, obtained from inhibition or displacement.
